Data published in patent publication US20250114312A1, “TREATMENT OF COPPER DISORDERS” (PhilERA New Zealand Ltd., priority 2021, published 2025).

Tests used:
[1] = in-life phase, albino and pigmented rats, 10 mg/kg oral
[2] = human, in vivo
[3] = Permeability in Caco-2 barrier model; conditions: human, Caco-2, pH 7.4
Experimental: (§1) Digoxin was used as marker to check for Pgp activity in the cultures. […] Samples were recovered from receptor compartments after 0, 15, 30, 45, 60, and 120 minutes, and further analyzed by liquid scintillation counting. Samples were also recovered a time 0 and 120 minutes from the donor compartments for mass balance evaluation. Each condition was performed in 3 replicated transwell filters in the presence of the Caco-2 barrier.

Caco-2 barrier model = assay: Permeability in Caco-2 barrier model; conditions: for Papp, B-A direction: compound alone
Experimental: as §1

urinary copper excretion = conditions: in vivo
Pgp = Pgp (Homo sapiens, UniProt P08183); conditions: Caco-2
Sequence of Pgp (P08183 whole entry): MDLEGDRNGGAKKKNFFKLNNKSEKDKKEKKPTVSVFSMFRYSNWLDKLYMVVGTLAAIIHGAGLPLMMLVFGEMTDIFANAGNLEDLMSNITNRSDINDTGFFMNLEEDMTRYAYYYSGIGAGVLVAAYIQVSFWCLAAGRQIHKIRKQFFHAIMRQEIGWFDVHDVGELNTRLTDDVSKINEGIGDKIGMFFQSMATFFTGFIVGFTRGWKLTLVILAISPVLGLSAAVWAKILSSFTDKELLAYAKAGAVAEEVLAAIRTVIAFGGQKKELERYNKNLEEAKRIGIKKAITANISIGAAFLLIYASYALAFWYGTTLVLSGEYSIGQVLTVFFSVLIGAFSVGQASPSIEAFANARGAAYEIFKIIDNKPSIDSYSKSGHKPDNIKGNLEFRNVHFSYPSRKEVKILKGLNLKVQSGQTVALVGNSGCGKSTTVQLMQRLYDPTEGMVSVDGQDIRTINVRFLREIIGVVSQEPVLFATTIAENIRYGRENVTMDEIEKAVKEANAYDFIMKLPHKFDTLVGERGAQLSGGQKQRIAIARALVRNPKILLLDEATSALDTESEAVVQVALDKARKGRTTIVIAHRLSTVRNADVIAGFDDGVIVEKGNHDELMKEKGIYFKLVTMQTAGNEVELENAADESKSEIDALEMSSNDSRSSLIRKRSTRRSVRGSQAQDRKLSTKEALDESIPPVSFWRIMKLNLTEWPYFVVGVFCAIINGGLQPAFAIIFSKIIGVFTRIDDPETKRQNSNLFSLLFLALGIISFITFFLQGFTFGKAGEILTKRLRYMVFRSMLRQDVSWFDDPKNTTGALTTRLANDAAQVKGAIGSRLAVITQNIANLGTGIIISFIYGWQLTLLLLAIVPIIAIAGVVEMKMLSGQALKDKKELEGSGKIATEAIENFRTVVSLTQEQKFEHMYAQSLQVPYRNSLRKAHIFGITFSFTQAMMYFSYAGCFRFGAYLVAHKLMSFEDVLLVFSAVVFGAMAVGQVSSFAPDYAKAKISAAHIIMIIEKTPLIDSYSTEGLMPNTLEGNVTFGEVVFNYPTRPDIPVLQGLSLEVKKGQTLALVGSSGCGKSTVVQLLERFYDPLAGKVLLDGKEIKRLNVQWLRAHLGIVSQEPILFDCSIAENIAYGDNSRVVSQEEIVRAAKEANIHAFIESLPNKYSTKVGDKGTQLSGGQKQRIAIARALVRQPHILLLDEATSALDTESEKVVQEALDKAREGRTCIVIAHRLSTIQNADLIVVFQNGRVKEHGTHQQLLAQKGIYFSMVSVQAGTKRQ

With `NCCNCCNCCN.O=C(O)CCC(=O)O.O=C(O)CCC(=O)O` the “Animal observations attributable to administration” value [1] was “No animal observations”.

With `CC(=O)NCCNCCNCCNC(C)=O` [DAT, N1,N10-diacetyltriethylenetetramine] the “θ-VP,D/F/frM/frD Apparent volume for DAT” value (human, in vivo) was 197 L and the “Median Tmax of DAT” value [2] was 5.0 to 6.0 h.

For `C[C@H]1O[C@@H](O[C@H]2[C@@H](O)C[C@H](O[C@H]3[C@@H](O)C[C@H](O[C@H]4CC[C@@]5(C)[C@H](CC[C@@H]6[C@@H]5C[C@@H](O)[C@]5(C)[C@@H](C7=CC(=O)OC7)CC[C@]65O)C4)O[C@@H]3C)O[C@@H]2C)C[C@H](O)[C@@H]1O` [Digoxin], the Papp A→B at 1 h, 0.02 mM [3] was 0.75 ×10⁻⁶ cm/s, the “Asymmetry Index” value (Caco-2 barrier model; B-A/A-B) was 8.06 and the “Papp, B-A direction” value (Caco-2 barrier model) was 6.08 ×10⁻⁶ cm/s.

In the case of `CC(=O)NCCNCCNCCN` [MAT, N1-acetyltriethylenetetramine], the “θ-MTT Mean transit time for MAT formation” value (human, in vivo) was 0.381 h and the “θ-VP,M/F/frM Apparent volume for MAT” value (human, in vivo) was 426 L.

In the case of `NCCNCCNCCN.O=C(O)CCC(=O)O.O=C(O)CCC(=O)O` [PX811019, triethylenetetramine disuccinate], the “DAT t½ Predicted” value (human, in vivo, po) was 0.390 h, the “Difference in urinary excretion of copper due to formulation” value (urinary copper excretion) was “no clear difference” and the “Level of cupriuresis versus dose” value (urinary copper excretion; po) was “approximately the same at 435 and 1305 mg PX811019 and increased at the highest dose of 2175 mg”. The Pgp substrate (Pgp) was “would not be a Pgp substrate”, the “Papp, B-A direction” value (Caco-2 barrier model; disuccinate) was “No permeability was observed” and the “Predicted absorption in humans” value (Caco-2 barrier model; estimated from in vitro Papp value) was “approximately 70%”. The “MAT t½” value ([2]; po) was 15.8239 h.

In the case of `NCCNCCNCCN` [TETA, Triethylenetetramine, reference compound], the “Increase of VT,T/F for every 100 mg difference from the 750 mg dose” value (human, in vivo) was 6.37%, the “Inter-occasion variability of F” value (human, in vivo) was 43.7 (17.3) [5.5] % and the “Inter-occasion variability of ka” value (human, in vivo) was 69.4 (57.6) [16.3] %. For the same compound, the “Slope (SL) of copper excretion versus TETA concentration” value (in vivo) was 41.8 (mg/L)^−1 and the “θ-SL · ER0 Slope between TETA and Cu excretion rate” value (population mean) was 24.3 (mg/L)^−1 · (μg/h).

With Lucifer yellow the “Papp of barrier quality markers” value (Caco-2 barrier model; Caco-2) was “lower than 1×10^−6 cm/s”.
